Reference: patent US20150150892A1, “METHODS AND PRODUCTS RELATED TO LUNG CANCER” (Massachusetts Institute of Technology, priority 2012, published 2015)

What was measured:
[1] = tested on: NF-κB target genes; test: Quantitative PCR of NF-κB target genes in KP cells; format: cell-based, mouse
Procedure: (§1) FIG. 1. Bortezomib inhibits NF-κB signaling and induces apoptosis in murine lung adenocarcinoma cell lines. (1A) reduction of nuclear p65 level by bortezomib. Two KP (KrasLSL-G12D/wt;p53flox/flox) cell lines (KP1 and KP2) were treated with 5 nM bortezomib (BZ) or vehicle control (ctrl) for 24 hours. Nuclear (N) and cytoplasmic (C) fractions of protein lysates were immunoblotted with the indicated antibodies. NEMO and Parp serve as cytoplasmic and nuclear loading controls, respectively. (1B) quantitative PCR analysis of a subset of NF-κB target genes in 5 nM bortezomib (BZ)-treated KP cells at the indicated time points. Vehicle control is set to 1. (1C) apoptosis in KP and KP^M (KrasLSL-G12D/wt;p53R127H/−) cells induced by bortezomib. Cells were pre-treated with 5 nM bortezomib for 24 hours, and protein lysates were immunoblotted with CC3 and tubulin antibodies. (1D) quantification of cell death in bortezomib-treated cells. Cells were treated with the indicated concentrations of bortezomib for 24 hours, and dead cells were quantified by Trypan blue staining. Error bars are SD (n=3).
(§2) FIG. 7: The NF-κB inhibitor Bay-117082 leads to lung tumor regression in vivo. (7A) quantitative PCR analysis of NF-κB target gene expression in KP cells treated with 10 μM Bay-117082 for indicated hours. Error bars are SD (n=3). (7B) Bay-117082 treatment leads to lung tumor regression and delays tumor progression in the orthotopic lung tumor model. A total of 50,000 luciferase-tagged KP cells were transplanted into recipient mice (n=6), and treatment was started at 19 days after transplantation (set at D0). Mice were treated with vehicle control or 10 mg/kg Bay-117082 by i.p. injection, and imaged at the indicated time points. Arrows indicate Bay-117082 injections. (7C) Bay-117082 prolongs survival in the KP model (n=6; P=0.008). “i.p. dosing” indicates treatment with 3 doses per week.
RNA was purified using TRIzol (Invitrogen), according to the manufacturer's instructions. One microgram of RNA was reverse transcribed using the High-Capacity cDNA Reverse Transcription Kit (Applied Biosystems). Real-time PCR (quantitative PCR) amplification was performed using Taqman probes (Applied Biosystems). Data were normalized to the Gapdh (mouse) or GAPDH (human) levels.

[2] = tested on: KP and KP^M cells; test: Cleaved caspase 3 (CC3) immunoblot in lung adenocarcinoma cells; format: cell-based, mouse; settings: KP cell lines, 10IJM Bay-117082, 48 hours
Procedure: as §1
FIG. 17: Bay-117082 induces cell death In KP cells. […] (17B) Bay-117082 induces apoptosis in KP cells. Cells were treated with 10IJM Bay-117082 for 48 hours. Protein lysates were immunoblotted with cleaved caspase 3 (CC3) and Tubulin antibodies.
Cell pellets were lysed in Laemmli buffer. […]

[3] = tested on: KP and KP^M cell lines; test: Cell viability assay (Cell Titer Aqueous Kit); format: cell-based, mouse; settings: KP cell lines, increasing doses of Bay-117082, 48 hours
Procedure: FIG. 2: Bortezomib sensitivity correlates with basal NF-κB activity in KP lung adenocarcinoma cell lines. […] 3TZ, diamond; LKR13, triangle; KP, solid lines; KPM, dashed lines. Error bars are SD (n=3). (2B) lung cancer cell lines with high basal NF-κB activity were sensitive to bortezomib. NF-κB p65 DNA-binding activity was determined by ELISA from nuclear extracts of KP cell lines and LKR13 cells (set as 1). Relative viability was measured after 5 nM bortezomib treatment, as in 2A. FIG. 17: Bay-117082 induces cell death In KP cells. […] (17B) Bay-117082 induces apoptosis in KP cells. Cells were treated with 10IJM Bay-117082 for 48 hours. […] Cell culture conditions were as described recently (30).

[4] = tested on: KP mice; test: Kaplan-Meier survival of KP mice; format: in vivo, mouse; settings: KP mice 8 weeks post Adeno-Cre, Bay-117082 10 mg/kg i.p. 3 times per week for 4 weeks; control 79.0±13.2 days; P=0.008
Procedure: (5A and 5B) Kaplan-Meier survival curve of vehicle control and bortezomib-treated KP (5A) and K (5B) mice. Arrows indicate weekly 1 mg/kg bortezomib regimen. […] Arrows indicate bortezomib injection.
To initiate lung tumors, cohorts of K or KP mice of 129svJae background were infected with 2.5×10^7 plaque-forming units of Adeno-Cre (University of Iowa) by intranasal inhalation, as described previously (2, 28). Mice were given bortezomib (LC Labs) in PBS [0.5% dimethylsulfoxide (DMSO)] at 1 mg/kg body weight i.v., as indicated.
To analyze the long-term effects of bortezomib therapy, we investigated whether a 4-dose regimen of bortezomib (19) could prolong survival of tumor-bearing mice. Using a cohort of KP mice, we treated tumor-bearing animals 8 weeks after Adeno-Cre infection with bortezomib once a week for 4 weeks (FIG. 10A).

[5] = tested on: luciferase-tagged KP cells transplanted into immunocompetent recipient mice; test: Orthotopic lung tumor model, survival and bioluminescence imaging; format: in vivo, mouse
From the text: FIG. 6: Imaging bortezomib response and resistance in an orthotopic lung tumor model. (6A) experimental design. Lung cancer cells derived from KP tumors were infected with a retrovirus expressing luciferase and transplanted into immunocompetent recipient mice by tail vein injection. (6B) Kaplan-Meier survival curve of control and bortezomib-treated recipient mice (n=6; P=1.4×10−5). A total of 10,000 cells were transplanted, and treatment started after 35 days. (6C) representative bioluminescence imaging of recipient mice (n=6) treated with vehicle control or bortezomib, as in 6B. D0 refers to the first treatment. Arrows indicate weekly bortezomib regimen.
as §2
At indicated time points, mice were scanned for 15 min under isoflurane anesthesia, using a small animal eXplore Locus microCT (GE Healthcare) at 45-μm resolution, 80 kV, with 450-mA current (47). Images were acquired and processed using GE eXplore software. Bioluminescence imaging was performed as previously described (48). Mice were imaged for 60 seconds, and signals in the lung were quantified using Xenogen software.
To facilitate imaging of the bortezomib treatment response, we adapted a transplantation-based orthotopic lung cancer mouse model (37). As outlined in FIG. 6A, we infected KP cell lines with a retrovirus expressing firefly luciferase. The cells were transplanted into immunocompetent recipient mice by i.v. injection, resulting in the development of in situ lung tumors that could be imaged and quantified by bioluminescence imaging.
To determine whether bortezomib therapy was effective in the orthotopic model, we transplanted 10,000 KP cells into host mice and treated the mice 5 weeks later, either with control or with a weekly 4-dose regimen of bortezomib (37).

[6] = tested on: IKK kinase activity; settings: cited from earlier work
[7] = tested on: stress-activated protein kinases, p38 and JNK-1; settings: cited from earlier work
[8] = tested on: Hmgsc2 mRNA; test: Hmgsc2 mRNA in bortezomib resistant cells; format: cell-based; settings: vs control shRNA
From the text: As shown in the data the control levels of Hmgsc2 are quite high in the control and low in the other samples.
The effects of Hmgsc2 expression in bortezomib resistant cells was examined to determine if Hmgsc2 would be a good therapeutic target for the treatment of NF-kB regulated lung cancers. […] As shown in the data the control levels of Hmgsc2 are quite high in the control and low in the other samples.

| Compound | Xiap inhibition, Bay-117082 compared with bortezomib ([1]; KP cells in vitro, FIG. 1B and FIG. 7A) | expression of prosurvival NF-κB target genes such as Bcl2, Bclx1, Xiap ([1]; KP cells, 10 μM Bay-117082, indicated hours) | caspase 3 cleavage [2] | cell death (relative cell viability) [3] | survival [4] | lung tumor signal in the initial phase ([5]; 50,000 luciferase-tagged KP cells, 10 mg/kg Bay-117082 i.p., 0-9 days) | lung tumor progression ([5]; orthotopic model, 10 mg/kg Bay-117082 i.p.) | tumor response under continuous treatment ([5]; orthotopic model, 42-63 days) | IKK kinase activity [6] | effect on stress-activated protein kinases p38 and JNK-1 [7] | relative amount of Hmgsc2 mRNA [8] |
| --- | --- | --- | --- | --- | --- | --- | --- | --- | --- | --- | --- |
| Cc1ccc(S(=O)(=O)/C=C/C#N)cc1 [Bay-117082] | stronger | downregulates | induced caspase 3 cleavage | cell death | 120.2 ± 27.0 days | significantly reduced lung tumor signal | delayed lung tumor progression until 42 days | eventually became refractory to therapy | inhibits | stimulate | – |
| insulin: positive control; represses Hmgcs2 | – | – | – | – | – | – | – | – | – | – | low |
